Five compounds from patent US20230399612A1, “METHOD FOR THE GENERATION OF NEUROSPHERES” (KUGELMEIERS LTD., priority 2020, published 2023) can be followed below.

Like-named read-outs stand apart in the source and are kept apart here.

In the assay the test system is Hi-Q organoids. Put plainly: Calcium imaging in sections of Hi-Q brain organoids (Oregon Green BAPTA 1). It counts as cell-based, human. The settings on record: for calcium signals on addition of the substance: more evident in older than in younger organoids, FIG. 4C-D.

On to `NCCCC(=O)O` [GABA], for which the “calcium signals on addition of the substance” value is recorded as “spike in calcium signals”. Moreover, under “Day 30 organoids, FIG. 4C”, the “response of organoids to added transmitter (calcium imaging)” value (“response of organoids … (calcium imaging)” below) is recorded as “respond”. Besides, the “response of organoids … (calcium imaging)” value (Day 40 organoids, FIG. 4D) was “respond”.
Turning to `NS(=O)(=O)c1cccc2c1c([N+](=O)[O-])cc1nc(O)c(O)nc12` [NBQX], under “blocker added”, the “effect on calcium signals evoked by GABA or glutamate (involvement of AMPA receptors)” value is recorded as “blocked”.
With `NC1=N[C@H](O)[C@H]2[C@H]3O[C@]4(O)O[C@@H]([C@@H](O)[C@@]2(N1)[C@@H]4O)[C@]3(O)CO` [TTX, tetrodotoxin], the “effect on the response to GABA” value is on record as “not altered” and the “inhibition of sodium channels in the brain organoids, analyzed by calcium imaging” value is on record as “inhibits sodium channels”.
As for NiCl2, the “effect on the response to GABA” value (blocker added, calcium signal evoked by GABA) is “blocked”.
Regarding glutamate, the “calcium signals on addition of the substance” value is “spike in calcium signals”. Besides, the “response of organoids … (calcium imaging)” value (Day 30 organoids, FIG. 4C) is “no response”. Moreover, under “Day 40 organoids, FIG. 4D”, the “response of organoids … (calcium imaging)” value is given as “respond”.
